From PubChem BioAssay AID2060487 (Molecular Pharmacology Branch, DTP, NCI, 2025)
Values joined by “and” are separate entries in the source; they are usually repeats but may differ in a detail not shown here. Identical values can stand only once.

Test system: 997537-175-T-J1-PDC complex spheroid viability
Assay: Anticancer human tumor 997537-175-T-J1-PDC patient-derived colon adenocarcinoma cell line growth inhibition [GQUAD]
Conditions: for viability, T/C: stronger effect = lower value
Excerpt: DNA G-quadruplex Stabilizer Agents in Combinations in Complex Spheroids
A high-throughput screen of multi-cell type tumor spheroids was designed to identify active combinations of DNA G-quadruplex stabilizer agents and targeted small molecules. Complex spheroids include a stromal component modeled by human endothelial cells (HUVEC) and fibroblasts modeled by human mesenchymal stem cells (MSCs). The concentration ranges selected for each drug and investigational agent were based upon clinically achievable concentrations if the clinical Cmax of the agent was known.
Compounds. The drugs and investigational agents: pidnarulex (CX-5461; NSC782164), APTO-253 (NSC789042), BRACO-19 (NSC847499), peposertib (NSC802822), ceralasertib (NSC780249), elimusertib (NSC800525), camonsertib (NSC841442), AZD-1390 (NSC803789), olaparib (NSC753686), talazoparib (NSC767125), ART-558 (NSC835418), sotorasib (NSC818433), MRTX-1133 (NSC836407), SN-38 (NSC673596), topotecan (NSC609699), etoposide (NSC141540), doxorubicin (NSC123127), gemcitabine (NSC613327), 5-fluorouracil (NSC19893), paclitaxel (NSC125973), vemurafenib (NSC761431), panobinostat (NSC761190), R-306465 (JNJ-16241199; NSC773264), adavosertib (NSC754352), TP-3654 (NSC805149), carboplatin (NSC241240), KSQ-4279 (NSC840948), and staurosporine (NSC755774) were obtained from the National Cancer Institute (NCI) Developmental Therapeutics Program Chemical Repository (34). The FDA-approved anticancer drug set is available from the NCI Developmental Therapeutics Program. […] The stock solutions were prepared in dimethyl sulfoxide (DMSO, Sigma-Aldrich, St. Louis, MO, cat. D2650) at 800-fold the tested concentration and stored at -70 degrees C prior to their use. All drugs and investigational agents were tested over a range starting from a high concentration at or near the clinical Cmax and decreasing in half-log increments. If the clinical Cmax for an agent had not been determined, the highest concentration tested was 10 microM.
2.3 Cell Culture. All cells were maintained in an incubator at 37 degrees C and 5% CO2 with 95% humidity. The PDC lines were cultured according to standard operating procedures established by the NCI PDMR. All PDCs were thawed and cultured in Matrigel-coated flasks prepared with a working solution of 1X Ham's F-12 nutrient mix, without supplementation (Invitrogen, cat. 11765054), 100 U/mL penicillin-streptomycin (Invitrogen, cat. 15140122), and 2.5% Matrigel (Corning Inc., cat. 354248) for the first three passages. The 857933-349-R-J2-PDC line was cultured in 6C/Colon 1B media, which includes advanced DMEM/F-12 (Thermo Fisher Scientific, cat. 12634028), 10 mM HEPES (Thermo Fisher Scientific, cat. 15630080), 1X GlutaMAX supplement (Thermo Fisher Scientific, cat. 35050061), 0.1 mg/mL primocin (InvivoGen, cat. ant-pm-2), 10% defined fetal bovine serum, heat inactivated (HyClone Laboratories Inc., cat. SH30070.03HI), 50% L-WRN conditioned media (ATCC, cat. CRL-3276), 1.25 mM N-Acetyl-L-cysteine (Sigma-Aldrich, cat. A9165), 10 mM nicotinamide (Sigma-Aldrich, cat. N0636), 1X B-27 supplement (Thermo Fisher Scientific, cat. 17504044), 1X N-2 supplement (Thermo Fisher Scientific, cat. 17502048), 10 microM Y-27632 dihydrochloride (Tocris Bioscience, cat. 1254), and 50 ng/mL human EGF recombinant protein (Thermo Fisher Scientific, cat. PHG0311). The 485176-168-R4-J1-PDC line was cultured in Panc media, which includes all 6C/Colon 1B media components plus 100 ng/mL human FGF-10 (Thermo Fisher Scientific, cat. 100-26), 500 nM SB-431542 (Selleckchem, cat. S1067), and gastrin (Tocris, cat. 3006).
[…]
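Note: spheroids exposed to the agents for 7 days.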
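Throughout, for viability, T/C: 100% = DMSO vehicle control viability.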

For `CC(=O)O[C@H]1C(=O)[C@@]2(C)[C@H]([C@H](OC(=O)c3ccccc3)[C@]3(O)C[C@H](OC(=O)[C@H](O)[C@@H](NC(=O)c4ccccc4)c4ccccc4)C(C)=C1C3(C)C)[C@]1(OC(C)=O)CO[C@@H]1C[C@@H]2O`, the viability, T/C (compound 0.0316 µM) was 104% and 77.3% and 50.1%, the viability, T/C (compound 0.1 µM) was 92.5% and 40.4% and 45.4% and the viability, T/C (compound 0.316 µM) was 91.8% and 22.7% and 36.3%. For the same compound, the viability, T/C (compound 1 µM) was 74.7% and 34.4% and 39.1%, the viability, T/C (compound 3.16 µM) was 53.2% and 23.9% and 28.3% and the viability, T/C (compound 10 µM) was 0.36% and 20.5% and 22%.
With `CC(C)n1c(=O)n(C)c2cnc3cc(F)c(-c4ccc(OCCCN5CCCCC5)nc4)cc3c21` the viability, T/C (compound 0.0316 µM) was 97.6% and 103% and 97%, the viability, T/C (compound 0.1 µM) was 90.3% and 99.9% and 82.4% and the viability, T/C (compound 0.316 µM) was 110% and 106% and 99.8%. The viability, T/C (compound 1 µM) was 107% and 99.2% and 103%, the viability, T/C (compound 3.16 µM) was 83.5% and 78.7% and 101% and the viability, T/C (compound 10 µM) was 83.4% and 93.4% and 92%. The IC50 (curve of compound) was over 10000 nM.
In the case of `Cn1ncnc1[C@H]1c2n[nH]c(=O)c3cc(F)cc(c23)N[C@@H]1c1ccc(F)cc1`, the viability, T/C (compound 0.000999 µM) is reported as 91.9% and 91.2% and 104%, the viability, T/C (compound 0.00316 µM) is reported as 89.7% and 92.9% and 86% and the viability, T/C (compound 0.00999 µM) is reported as 107% and 90.8% and 92.9%. For the same compound, the viability, T/C (compound 0.0316 µM) was 72.1% and 87.1% and 89.7%, the viability, T/C (compound 0.0999 µM) was 90.8% and 64% and 84% and the viability, T/C (compound 0.316 µM) was 85.8% and 73.8% and 89%. For the same compound, the IC50 (curve of compound) was over 316 nM.
With `CC1COCCN1c1cc(C2(O)CC3CCC(C2)O3)c2cnn(-c3ccn[nH]3)c2n1` (centres undefined) the viability, T/C (compound 0.0316 µM) was 86.8% and 86.6% and 96.4%, the viability, T/C (compound 0.1 µM) was 57.4% and 66.7% (2×) and the viability, T/C (compound 0.316 µM) was 50.3% and 53.8% and 37.7%. The viability, T/C (compound 1 µM) was 51.1% and 54.5% and 70.1%, the viability, T/C (compound 3.16 µM) was 49.2% and 35.5% and 36.5% and the viability, T/C (compound 10 µM) was 44.9% and 33.9% and 48.4%. The IC50 (curve of compound) was 345 nM and 701 nM and 282 nM.
Work on `Cn1ncnc1[C@H]1c2n[nH]c(=O)c3cc(F)cc(c23)N[C@@H]1c1ccc(F)cc1` + Cc1[nH]c2ccc(F)cc2c1-c1nc2c3cccnc3c3ncccc3c2[nH]1 yielded an IC50 (curve of first compound, second compound 0.0316 µM) of over 316 nM, an IC50 (curve of first compound, second compound 0.1 µM) of over 316 nM and an IC50 (curve of first compound, second compound 0.316 µM) of over 316 nM. For the same compound, the IC50 (curve of first compound, second compound 1 µM) was over 316 nM, the IC50 (curve of first compound, second compound 3.16 µM) was over 316 nM and the IC50 (curve of first compound, second compound 10 µM) was over 316 nM. It also gave a viability, T/C (second compound 0.0316 µM, first compound 0.000999 µM) of 101%, a viability, T/C (second compound 0.0316 µM, first compound 0.00316 µM) of 99.5% and a viability, T/C (second compound 0.0316 µM, first compound 0.00999 µM) of 104%. It also gave a viability, T/C (second compound 0.0316 µM, first compound 0.0316 µM) of 71%, a viability, T/C (second compound 0.0316 µM, first compound 0.0999 µM) of 82.5% and a viability, T/C (second compound 0.0316 µM, first compound 0.316 µM) of 83.1%. It also gave a viability, T/C (second compound 0.1 µM, first compound 0.000999 µM) of 103%, a viability, T/C (second compound 0.1 µM, first compound 0.00316 µM) of 102% and a viability, T/C (second compound 0.1 µM, first compound 0.00999 µM) of 84.4%. It also gave a viability, T/C (second compound 0.1 µM, first compound 0.0316 µM) of 65.1%, a viability, T/C (second compound 0.1 µM, first compound 0.0999 µM) of 106% and a viability, T/C (second compound 0.1 µM, first compound 0.316 µM) of 96.2%. It also gave a viability, T/C (second compound 0.316 µM, first compound 0.000999 µM) of 102%, a viability, T/C (second compound 0.316 µM, first compound 0.00316 µM) of 103% and a viability, T/C (second compound 0.316 µM, first compound 0.00999 µM) of 87.1%. For the same compound, the viability, T/C (second compound 0.316 µM, first compound 0.0316 µM) was 75.8%, the viability, T/C (second compound 0.316 µM, first compound 0.0999 µM) was 99.7% and the viability, T/C (second compound 0.316 µM, first compound 0.316 µM) was 93.1%. It also gave a viability, T/C (second compound 1 µM, first compound 0.000999 µM) of 83.7%, a viability, T/C (second compound 1 µM, first compound 0.00316 µM) of 74.6% and a viability, T/C (second compound 1 µM, first compound 0.00999 µM) of 91.2%. The viability, T/C (second compound 1 µM, first compound 0.0316 µM) was 81.3%, the viability, T/C (second compound 1 µM, first compound 0.0999 µM) was 96.5% and the viability, T/C (second compound 1 µM, first compound 0.316 µM) was 87.8%. It also gave a viability, T/C (second compound 3.16 µM, first compound 0.000999 µM) of 84.7%, a viability, T/C (second compound 3.16 µM, first compound 0.00316 µM) of 73.2% and a viability, T/C (second compound 3.16 µM, first compound 0.00999 µM) of 73.3%. It also gave a viability, T/C (second compound 3.16 µM, first compound 0.0316 µM) of 70.6%, a viability, T/C (second compound 3.16 µM, first compound 0.0999 µM) of 101% and a viability, T/C (second compound 3.16 µM, first compound 0.316 µM) of 84.2%. It also gave a viability, T/C (second compound 10 µM, first compound 0.000999 µM) of 78%, a viability, T/C (second compound 10 µM, first compound 0.00316 µM) of 61.3% and a viability, T/C (second compound 10 µM, first compound 0.00999 µM) of 89.8%. It also gave a viability, T/C (second compound 10 µM, first compound 0.0316 µM) of 62.9%, a viability, T/C (second compound 10 µM, first compound 0.0999 µM) of 92.5% and a viability, T/C (second compound 10 µM, first compound 0.316 µM) of 95.3%.
